Experimental data: patent publication US20230248735A1, “COMPOSITIONS FOR PREVENTING OR TREATING CHRONIC OBSTRUCTIVE PULMONARY DISEASES (COPD)” (Chong Kun Dang Pharmaceutical Corp., priority 2019, published 2023)

Key:
A549 cells = assay: Inhibitory effect on TGF-β1-induced EMT (E-Cad and N-Cad expression, Western blot); format: cell-based; settings: 5 ng/mL TGF-β1, 48 hours, compared to Vhcl (TGF-β1), FIG. 5
Method: (§1) In order to confirm an effect of the compound according to the present invention on preventing or treating chronic obstructive pulmonary disease, an expression of an epithelial marker protein (E-Cad) and a mesenchymal marker protein (N-Cad) was analyzed. A549 cells were cultured in RPMI-1640 medium containing 10% fetal bovine serum (FBS) and 1% penicillin-streptomycin (P/S). The 1.5×10^5 cells were plated in a 6-well plate and incubated overnight. The cells were cultured with 5 ng/mL of recombinant human transforming growth factor beta 1 (TGF-β1) to induce an epithelial-to-mesenchymal transition (EMT). TGF-β1 was diluted with RPMI-1640 (1% FBS, 1% P/S) and incubated with the cells for 48 hours. The 500 µL of culture medium was loaded on a centrifugal filter (Amicon® Ultra-0.5 mL) and centrifuged at 14,000×g for 10 minutes. The enriched culture medium was boiled with 15 µL of 4X sample buffer at 100° C. for five minutes and analyzed by using the Western blot. The cells were lysed by using an RIPA buffer containing a protease inhibitor cocktail and a phosphatase inhibitor cocktail. A lysate was incubated on ice for three minutes and centrifuged at 13,000×g, 4° C. for 20 minutes. A supernatant was quantified by using a BCA protein assay kit and analyzed by the Western blot. The prepared sample was loaded on NuPAGE Novex 4-12% Bis-Tris gel and decomposed at 120 V Proteins were transferred to a nitrocellulose membrane by using an iBlot machine. The membrane was blocked by using EzBlock Chemi according to the manufacturer’s instructions. Antibodies such as E-cadherin (E-Cad), N-cadherin (N-cad), Fibronectin-EDA (FN-EDA), etc., were used. After reaction with a horseradish peroxidase (HRP)-conjugated secondary antibody, immunoreactive proteins were visualized by using Amersham® ECL select® Western blot detection reagent, and detected by ChemiDoc® MP imaging system. The intensity of the band was quantified with ImageJ software and normalized to β-actin.

FN-EDA in A549 cells = assay: FN-EDA protein reduction in TGF-β1-treated cells (Western blot); format: cell-based; settings: 5 ng/mL TGF-β1, 48 hours, compared to Vhcl (TGF-β1), FIG. 6
Method: as §1
In order to confirm an effect of the compound according to the present invention on preventing or treating chronic obstructive pulmonary disease, an expression of FN-EDA, a key extracellular matrix (ECM) protein, was analyzed. The analysis was performed by the same method as described in Example 2 above.

[1] = system: mouse with induced COPD (smoking + Poly I:C); assay: Evaluation of immune cell infiltration in H&E-stained lung tissue sections, smoking + Poly I:C COPD model; format: in vivo, C57BL/6 mouse; settings: 30 mg/kg P.O. Q.D.; compared to smoking + Poly I:C (SM+no drug); FIG. 2
Text: A C57BL/6 mouse (female, seven weeks old) was placed in a sealed smoking box and exposed to cigarette smoke for a certain period of time to induce COPD disease. Specifically, the mouse was put into the smoking box, after which a cigarette was lit and its filter was connected to a tube under a negative pressure, so that cigarette smoke could be continuously produced. Then, the smoking box was blocked, so that the mouse was forced to inhale the cigarette smoke while breathing in. The mouse was allowed to smoke for a total of four weeks. The mouse was exposed to one, two and four cigarettes once on the first, second and third days of the first week, respectively, and again exposed to four cigarettes twice and three times on the fourth and fifth days, respectively. After that, the mouse was exposed to four cigarettes three times a day for the remaining three weeks. […]
In order to confirm an effect of the compound according to the present invention on preventing or treating chronic obstructive pulmonary disease, a degree of immune cell infiltration was evaluated. […] According to a reference image of FIG. 1, a degree of cellular infiltration was determined as a score of 0 to 3, and the score was measured by observing slides for each group [FIG. 1: 0-none, 1-mild, 2-moderate, and 3-severe].

[2] = system: mouse with induced COPD (smoking + Poly I:C); assay: Analysis of bronchoalveolar lavage fluid (BAL fluid) cell counts, smoking + Poly I:C COPD model; format: in vivo, C57BL/6 mouse; settings: 30 mg/kg P.O. Q.D.; compared with SM+no drug; FIG. 3
Text: (§2) A C57BL/6 mouse (female, seven weeks old) was placed in a sealed smoking box and exposed to cigarette smoke for a certain period of time to induce COPD disease. Specifically, the mouse was put into the smoking box, after which a cigarette was lit and its filter was connected to a tube under a negative pressure, so that cigarette smoke could be continuously produced. Then, the smoking box was blocked, so that the mouse was forced to inhale the cigarette smoke while breathing in. The mouse was allowed to smoke for a total of four weeks. The mouse was exposed to one, two and four cigarettes once on the first, second and third days of the first week, respectively, and again exposed to four cigarettes twice and three times on the fourth and fifth days, respectively. After that, the mouse was exposed to four cigarettes three times a day for the remaining three weeks. Poly I:C (polyinosinic:polycytidylic acid) was administered into a nasal cavity of the anesthetized mouse twice a week in the third and fourth weeks during induction of smoking, so that a model of smoking + Poly I:C COPD (chronic obstructive pulmonary disease) was induced.
(§3) In order to confirm a drug administration effect of the compound according to the present invention, mice with induced COPD were divided into each group of six mice, and each of the groups was is classified as shown in a following table 1 according to an administered substance [vehicle (Veh), compound 374 (SM+1), or compound 458 (SM+2)], a route of administration [oral administration (P.O.)], and an administration interval [daily (Q.D.)].
In order to confirm an effect of the compound according to the present invention on preventing or treating chronic obstructive pulmonary disease, bronchoalveolar lavage fluid (BAL fluid) was analyzed. The 2 mL of the BAL fluid was separated from the mice of each group and centrifuged. After that, the resulting fluid was suspended in a phosphate buffer solution (PBS), after which the number of total cells was counted, and 2 × 10^5 cells were attached to a slide through a cytospin. After staining with a diff-quick stain kit, the resulting cells were classified into macrophage, neutrophil, etc. based on the properties of the stained cells, so as to count a total of 300 cells, after which a rate of respective cells was calculated with regard to the number of total cells to make a comparison among the groups.

[3] = system: IL-6, IFN-γ, MCP-1, TNF-α; assay: Expression of inflammatory cytokines in lung tissue by real-time PCR, smoking + Poly I:C COPD model; format: in vivo, C57BL/6 mouse; settings: 30 mg/kg P.O. Q.D., compared with SM+no drug, FIG. 4
Text: as §2, §3
In order to confirm an effect of the compound according to the present invention on preventing or treating chronic obstructive pulmonary disease, an expression of inflammatory cytokines in lung tissues was analyzed. Lungs were removed from mice of each group, after which RNA was isolated from the lung tissues. For each RNA, cDNA synthesis was performed by using a reverse transcriptase, after which an expression of inflammatory cytokine markers such as IL-6, IFN-y, MCP-1, and TNF-α was analyzed through real-time PCR, so as to compare a degree of induced inflammation among the groups. In this case, a sequence of a primer used in the experiment is the same as shown in a following table 2. (* P < 0.05, ** P < 0.01, and *** P < 0.001)

| Structure (SMILES) | expression of E-Cad (epithelial marker protein) (A549 cells) | expression of N-Cad (mesenchymal marker protein) (A549 cells) | expression of key ECM protein FN-EDA (FN-EDA in A549 cells) | cellular infiltration score (0 to 3) in lung tissue [1] | number of macrophages in BAL fluid [2] | number of neutrophils in BAL fluid [2] | number of total cells in BAL fluid [2] | expression of IFN-y in lung tissue [3] | expression of IL-6 in lung tissue [3] | expression of MCP-1 in lung tissue [3] | expression of TNF-α in lung tissue [3] |
| --- | --- | --- | --- | --- | --- | --- | --- | --- | --- | --- | --- |
| O=C(NO)c1ccc(CN(C(=O)N2CCOCC2)c2cccc(F)c2)cc1 [Compound 530] | remarkable increase | remarkable decrease | remarkable decrease |  |  |  |  |  |  |  |  |
| COc1cccc(N(Cc2ccc(C(=O)NO)cc2)C(=O)N2CCOCC2)c1 [Compound 484, N-(4-(Hydroxycarbamoyl)Benzyl)-N-(3-Methoxyphenyl)Morpholine-4-Carboxamide] | remarkable increase | remarkable decrease | remarkable decrease |  |  |  |  |  |  |  |  |
| O=C(NO)c1ccc(CN(C(=O)N2CCCOCC2)c2cccc(F)c2)cc1 [Compound 652] | remarkable increase | remarkable decrease | remarkable decrease |  |  |  |  |  |  |  |  |
| O=C(NO)c1ccc(CN(C(=O)N2CCOCC2)c2ccc(F)c(Cl)c2)cc1 [Compound 458, N-(3-chloro-4-fluorophenyl)-N-(4-(hydroxycarbamoyl)benzyl)morpholine-4-carboxamide] | remarkable increase | remarkable decrease | remarkable decrease |  |  |  |  |  |  |  |  |
| O=C(NO)c1ccc(CN(C(=O)N2CCOCC2)c2cccc(C(F)(F)F)c2)cc1 [Compound 374, N-(4-(hydroxycarbamoyl)benzyl)-N-(3-(trifluoromethyl)phenyl)morpholine-4-carboxamide] | remarkable increase | remarkable decrease | remarkable decrease |  |  |  |  |  |  |  |  |
| O=C(NO)c1ccc(CN(C(=O)N2CCOCC2)c2ccc(F)cc2F)cc1 [Compound 413, N-(2,4-difluorophenyl)-N-(4-(hydroxycarbamoyl)benzyl)morpholine-4-carboxamide] | remarkable increase | remarkable decrease | remarkable decrease |  |  |  |  |  |  |  |  |
| O=C(NO)c1ccc(CN(C(=O)N2CCOCC2)c2cccc(C(F)(F)F)c2)cc1 [SM+1, N-(4-(hydroxycarbamoyl)benzyl)-N-(3-(trifluoromethyl)phenyl)morpholine-4-carboxamide] |  |  |  | decrease | decreased | decreased | decreased | decreased | decreased | decreased | decreased |
| O=C(NO)c1ccc(CN(C(=O)N2CCOCC2)c2ccc(F)c(Cl)c2)cc1 [SM+2, N-(3-chloro-4-fluorophenyl)-N-(4-(hydroxycarbamoyl)benzyl)morpholine-4-carboxamide] |  |  |  | decrease | decreased | decreased | decreased | decreased | decreased | decreased | decreased |
